Measured values: US11116719B2, “Methods of treating Meniere's disease” (priority 2017, dated 2021)
Values joined by “and” are separate entries in the source; they are usually repeats but may differ in a detail not shown here. Identical values can stand only once. Like-named read-outs stand apart in the source and are kept apart here.

How the values were obtained:
[1] = tested on: humans with Eustachian tube dysfunction; details: cited from earlier work
[2] = tested on: Eustachian tube function in rat model; details: topical application; cited from earlier work
[3] = high concentrations; cited from earlier work
[4] = tested on: human patients suffering from secondary Meniere's disease (activated cervical sympathetic nervous system, mild Eustachian tube dysfunction); assay: Clinical treatment of secondary Meniere's disease patients with oral betahistine, electrocochleography (ECochG) SP/AP amplitude ratio and symptoms; assay type: in vivo
Experimental: Patients, aged 19-70 years, have undergone baseline testing to determine SP/AP amplitude ratio using ECochG in Meniere's disease patients before the start of study treatment. The effect on SP/AP amplitude ratio was evaluated after a predetermined period of treatment with betahistine or a pharmaceutically acceptable salt.
Patients were seated in a swivel chair and the chair rotated while the patient's head was stabilized. Effect of rotational movement was observed and pupil enlargement a determinant of secondary Meniere's disease.
Dose levels included 16 mg of betahistine three time daily for predetermined period. 8 mg dose twice daily thereafter for a second predetermined period.
Patient studies comprise a range of dosing regimens including tablets, powders, sprays. In present studies unless otherwise stated each dose was administered in a tablet form in the morning taken after food.
Route of Administration can include oral and topical delivery. In the present studies unless otherwise stated route of administration was oral delivery.
Audiological evaluations were performed at specified intervals to evaluate the efficacy of Tests performed by physician or qualified audiologist. ECochG was performed at specified intervals by a physician specialist. Patient reported outcomes by self-administered questionnaire included the VSS (Yardley et al. 2004) and the TFI (Meikle et al. 2011). These were scored by study personnel.
Patient was started on oral dosage form of betahistine 16 mg three times daily (tds) for two weeks and reduced to 8 mg once daily thereafter for two months.

[5] = tested on: eustachian tube function in "normal" volunteers; details: cited from earlier work; for effect on eustachian tube function (tympanometry): "normal" volunteers, nasal application
[6] = patient, review at two months of oral betahistine
[7] = patient, two months into oral betahistine treatment

CNCCc1ccccn1 [betahistine]
result versus placebo [1]: no greater result than a placebo
Eustachian tube function [2]: improved
toxicity [3]: nontoxic
elevated SP/AP ratio indicating endolymphatic hydrops ([4]; all cases of secondary MD treated): normalized
Left Ear SP/AP Ratio, Average Ratio ([4]; patient, after treatment (before treatment 28.6%)): Average Ratio of 16%
Right Ear SP/AP Ratio ([4]; patient, after treatment, single traces): 9% and 18%
repeat electrocochleograms [4, 6]: returned to normal levels
symptoms at review [4, 6]: improved significantly
repeat electrocochleograms [4, 7]: returned to normal levels
symptoms at review [4, 7]: improved significantly
treatment outcomes ([4]; patients suffering from secondary MD): invariably improved treatment outcomes
Eustachian tube function ([4]; patients with activated cervical sympathetic nervous system and mild Eustachian tube dysfunction): facilitation of Eustachian tube function
effect on eustachian tube function (tympanometry) ([5]; at best): no effect
effect on eustachian tube function (tympanometry) ([5]; higher dosages): Eustachian tube function became worse
mild Eustachian tube dysfunction ([5]; volunteers found to have mild Eustachian tube dysfunction): not improved
